Tests used:
[1] = test system: rats; test: "Pole Climbing" Test (neuroleptic properties; blocking of conditioned and unconditioned reaction); type: in vivo, rat; conditions: for Quotient ED10 (blocking of the unconditioned reaction)/ED50 (blocking of the conditioned reaction) / ED50: rats; for Quotient ED10 (blocking of the unconditioned reaction)/ED50 (blocking of the conditioned reaction): p.o., higher quotient = greater selectivity of the neuroleptic action; for ED50: Rattus norvegicus, po, pole climbing, conditioned impulse (acoustic signal)
Procedure: The neuroleptic properties of the foregoing derivatives were determined numerically on the basis of the following test, i.e., the "pole climbing" test.
This test provides information about the behavior reaction of rats. Rats are trained to avoid, by climbing up a vertical pole in the test chamber, an electrical impulse--unconditioned impulse--released via the wire-latticed floor some seconds after an acoustic signal--conditioned impulse--.
The blocking of the conditioned reaction is designated by the parameter ED50 (mg/kg p.o.) and the blocking of the unconditioned reaction is designated by the parameter ED10 (mg/kg p.o.).
The parameter ED50 --blocking of the conditioned reaction--provides a measure of the neuroleptic activity strength of the derivative under investigation since, with falling value, the neuroleptic activity strength increases.

[2] = test system: rats; test: Catalepsy Test; type: in vivo, rat; conditions: rats, intraperitoneally
Procedure: (§1) Representative dibenzo[b,f]thiepin derivatives of this invention were administered intraperitoneally to rats. The animals are considered to be cataleptic when the homolateral extremities remain in a crossed position for at least 10 seconds. The number of cataleptic animals is noted every 30 minutes for 6 hours.

[3] = test system: mouse; test: Acute toxicity in the mouse; type: in vivo; conditions: acute toxicity, 24 hours
Procedure: (§2) The values relate to a duration of activity over a period of 24 hours: […]

[4] = Catalepsy Test; type: in vivo, rat; conditions: rat, in vivo, ip
Procedure: as §1

[5] = Acute toxicity in the mouse; type: in vivo; conditions: in vivo, po, period of 24 hours
Procedure: as §2

[6] = pole climbing test, chlorpromazine compared with Derivative A and Derivative B

For CN(C)CCCN1c2ccccc2Sc2ccc(Cl)cc21 [Chlorpromazine, reference compound], which “neuroleptic activity (in words)” value [1, 6] is on record?
The value was “somewhat stronger activity”.

What about the “quality (selectivity) of the neuroleptic activity (in words)” value [1, 6] of the same compound?
Its value is “clearly inferior”.

And the “Quotient ED10 (blocking of the unconditioned reaction)/ED50 (blocking of the conditioned reaction)” value (shortened to “Quotient ED10”) [1]?
The value was 2.5.

What about the “cataleptic side-effects (in words)” value [2] of the same compound?
Its value is “considerably greater cataleptic activity”.

And the “toxicity (in words)” value [3]?
Its value is “clearly inferior”.

Which ED50 [1] does the source give for C#CCN1CCN(C2Cc3ccc(OC)cc3Sc3ccc(Cl)cc32)CC1.CS(=O)(=O)O.CS(=O)(=O)O (stereo not drawn) [Derivative B, 1-[8-Chloro-10,11-dihydro-3-methoxy-dibenzo[b,f]thiepin-10-yl]-4-(2-propynyl)-piperazine dimethanesulfonate] here?
Its ED50 is 25 mg/kg.

And the “Quotient ED10” value [1]?
The value was 4.

And the TD50 at 6 h [4]?
The TD50 at 6 h was greater than 100 mg/kg.

And the “cataleptic side-effects (in words)” value [2]?
The value was “only very slight or no cataleptic side-effects”.

What about the LD50 at 24 h [5] of the same compound?
Its LD50 at 24 h is 750 mg/kg.

For C#CCN1CCN(C2Cc3ccc(OC)cc3Sc3ccc(SC)cc32)CC1.Cl.Cl (stereo not drawn) [Derivative A, 1-[10,11-Dihydro-3-methoxy-8-methylthio-dibenzo[b,f]thiepin-10-yl]-4-(2-propynyl)-piperazine dihydrochloride], which ED50 [1] is on record?
Its ED50 is 17 mg/kg.

What about the “Quotient ED10” value [1] of the same compound?
The value was 9.

What about the TD50 at 6 h [4] of the same compound?
Its TD50 at 6 h is 88 mg/kg.

What about the “cataleptic side-effects (in words)” value [2] of the same compound?
The value was “only very slight or no cataleptic side-effects”.

What about the LD50 at 24 h [5] of the same compound?
The LD50 at 24 h was 900 mg/kg.

Source: US3996229A, “1-[10,11-Dihydro-dibenzo[b,f]-thiepin-10-yl]-4-(alkynylalkyl)-piperazines” (Hoffmann-La Roche Inc., priority 1974, dated 1976)
